Values joined by “and” are separate entries in the source; they are usually repeats but may differ in a detail not shown here. Equal values may be shown once. Where a name gives a salt, the structure may show the parent alone.
System: Long Evans rats
Assay: Behavioral satiety sequence (BSS)
Type: in vivo, Long Evans rat
Source text: The Behavioural Satiety Sequence (BSS) is a technique used to evaluate physiological satiety. It is based on the expression of a sequence of behaviors including eating, grooming, locomotor activity, followed by resting, which are typically observed in rodents post-ingestion (Halford et al, 1998, Pharmacology Biochemistry and Behaviour. 61(2): 159-168). The BSS is a widely used model for determining the effects of novel pharmaceuticals on food intake and measures of satiety in rodents (Oliveira et al, 2011, Revista de Nutrição. 24(4) 619-628), and to discriminate the cause of reduced food intake following pharmacological manipulation. For example, treatments that may reduce food intake by non-specific mechanisms, such as immobility, malaise, and taste adulteration, will disrupt this sequence (Halford et al, 1998, Pharmacology Biochemistry and Behaviour. 61(2): 159-168).
Specifically, 12 male Long-Evans rats were food-deprived for 22 h with a 2 h feeding period each day. Rats were trained to consume daily food during the 2 h period over 25 days. The testing phase was initiated once the rats consistently consumed 16-18 g of food per day with ≤10% variance in amount of feed consumed. Feeding took place in designated individual boxes in a quiet room separate from the housing room. Continuous remote monitoring via video camera during feeding was used to assess the BSS. Food consumption was measured by weighing the total available food before and after the 2 h feeding window, correcting for spillage. Lorcaserin (1 mg/kg) was included as a reference control (Higgins et al, 2011, Neuropsychopharmacology. 37(5): 1177-1191). Subjects were tested using a repeated-measures, Latin square design with 2-3 days wash-out between treatment cycles.
On scheduled test days, animals were monitored remotely via video camera during the feeding access period. The occurrence of four mutually exclusive behaviors (eating/drinking, grooming, active, rest) were individually scored. Over the 2 h feeding period, behaviors were assessed every 30 seconds. Scores were compiled into 23 5 min timebins (timebin 24 was removed due to early removal of animals) and the frequency of each behavior within each timebin was calculated to determine a temporal frequency of each measure (Rodgers et al, 2010, Pharmacology Biochemistry and Behaviour. 97: 3-14). Percentage time was plotted for each behavioral sequence in each timebin to compare between treatment groups (Higgins et al, 2011, Neuropsychopharmacology. 37(5): 1177-1191).

[1] = Lorcaserin 1 mg/kg, AVG of animals LT-1 to LT-12, 0-0.5 hours
[2] = Lorcaserin 1 mg/kg, raw data per animal LT-1 to LT-12, 0-0.5 hours, hydrochloride

Structure (SMILES): C[C@H]1CNCCc2ccc(Cl)cc21 [lorcaserin, Lorcaserin hydrochloride, reference compound]
- BSS scoring R (resting), Time Bin 12 (55-60 TOTAL) (Lorcaserin 1 mg/kg s.c., raw score per animal, hydrochloride): 0 (10×) and 1 (2×)
- BSS scoring A (active), Time Bin 1 (0-5 TOTAL), AVG [1]: 0.17
- BSS scoring A (active), Time Bin 2 (5-10 TOTAL), AVG [1]: 0.08
- BSS scoring A (active), Time Bin 3 (10-15 TOTAL), AVG [1]: 0.09
- BSS scoring A (active), Time Bin 4 (15-20 TOTAL), AVG [1]: 0.10
- BSS scoring A (active), Time Bin 5 (20-25 TOTAL), AVG [1]: 0.18
- BSS scoring A (active), Time Bin 6 (25-30 TOTAL), AVG [1]: 0.15
- BSS scoring E (eating/drinking), Time Bin 1 (0-5 TOTAL), AVG [1]: 0.75
- BSS scoring E (eating/drinking), Time Bin 2 (5-10 TOTAL), AVG [1]: 0.83
- BSS scoring E (eating/drinking), Time Bin 3 (10-15 TOTAL), AVG [1]: 0.78
- BSS scoring E (eating/drinking), Time Bin 4 (15-20 TOTAL), AVG [1]: 0.78
- BSS scoring E (eating/drinking), Time Bin 5 (20-25 TOTAL), AVG [1]: 0.71
- BSS scoring E (eating/drinking), Time Bin 6 (25-30 TOTAL), AVG [1]: 0.75
- BSS scoring G (grooming), Time Bin 1 (0-5 TOTAL), AVG [1]: 0.08
- BSS scoring G (grooming), Time Bin 2 (5-10 TOTAL), AVG [1]: 0.09
- BSS scoring G (grooming), Time Bin 3 (10-15 TOTAL), AVG [1]: 0.10
- BSS scoring G (grooming), Time Bin 4 (15-20 TOTAL), AVG [1]: 0.09
- BSS scoring G (grooming), Time Bin 5 (20-25 TOTAL), AVG [1]: 0.12
- BSS scoring G (grooming), Time Bin 6 (25-30 TOTAL), AVG [1]: 0.05
- BSS scoring R (resting), Time Bin 1 (0-5 TOTAL), AVG [1]: 0.01
- BSS scoring R (resting), Time Bin 2 (5-10 TOTAL), AVG [1]: 0.01
- BSS scoring R (resting), Time Bin 3 (10-15 TOTAL), AVG [1]: 0.02
- BSS scoring R (resting), Time Bin 4 (15-20 TOTAL), AVG [1]: 0.03
- BSS scoring R (resting), Time Bin 5 (20-25 TOTAL), AVG [1]: 0.00
- BSS scoring R (resting), Time Bin 6 (25-30 TOTAL), AVG [1]: 0.05
- BSS scoring R (resting), Time Bin 5 (20-25 TOTAL) (Lorcaserin 1 mg/kg, raw data per animal LT-1 to LT-12, 0-0.5 hours): 0
- BSS scoring A (active), Time Bin 1 (0-5 TOTAL) [2]: 3 (3×) and 2 (4×) and 1 (3×) and 0 (2×)
- BSS scoring A (active), Time Bin 2 (5-10 TOTAL) [2]: 1 (3×) and 0 (6×) and 2 (3×)
- BSS scoring A (active), Time Bin 3 (10-15 TOTAL) [2]: 1 (7×) and 0 (3×) and 2 (2×)
- BSS scoring A (active), Time Bin 4 (15-20 TOTAL) [2]: 3 (3×) and 1 (3×) and 0 (6×)
- BSS scoring A (active), Time Bin 5 (20-25 TOTAL) [2]: 0 (3×) and 1 (3×) and 3 (2×) and 4 (2×) and 2 (2×)
- BSS scoring A (active), Time Bin 6 (25-30 TOTAL) [2]: 2 (2×) and 0 (4×) and 1 (4×) and 7 and 3
- BSS scoring E (eating/drinking), Time Bin 1 (0-5 TOTAL) [2]: 7 (4×) and 6 (3×) and 8 (2×) and 10 and 9 (2×)
- BSS scoring E (eating/drinking), Time Bin 2 (5-10 TOTAL) [2]: 6 (2×) and 9 (4×) and 8 (3×) and 7 and 10 (2×)
- BSS scoring E (eating/drinking), Time Bin 3 (10-15 TOTAL) [2]: 8 (6×) and 5 and 7 and 6 and 10 and 9 (2×)
- BSS scoring E (eating/drinking), Time Bin 4 (15-20 TOTAL) [2]: 7 (3×) and 8 and 6 (3×) and 10 and 9 (4×)
- BSS scoring E (eating/drinking), Time Bin 5 (20-25 TOTAL) [2]: 9 (2×) and 8 (4×) and 7 (3×) and 4 (2×) and 6
- BSS scoring E (eating/drinking), Time Bin 6 (25-30 TOTAL) [2]: 7 (2×) and 9 (4×) and 10 and 8 (3×) and 1 and 5
- BSS scoring G (grooming), Time Bin 1 (0-5 TOTAL) [2]: 0 (4×) and 2 and 1 (7×)
- BSS scoring G (grooming), Time Bin 2 (5-10 TOTAL) [2]: 3 and 1 (4×) and 0 (5×) and 2 (2×)
- BSS scoring G (grooming), Time Bin 3 (10-15 TOTAL) [2]: 1 (4×) and 2 (4×) and 0 (4×)
- BSS scoring G (grooming), Time Bin 4 (15-20 TOTAL) [2]: 0 (4×) and 1 (5×) and 2 (3×)
- BSS scoring G (grooming), Time Bin 5 (20-25 TOTAL) [2]: 1 (3×) and 2 (4×) and 0 (4×) and 3
- BSS scoring G (grooming), Time Bin 6 (25-30 TOTAL) [2]: 0 (7×) and 1 (4×) and 2
- BSS scoring R (resting), Time Bin 1 (0-5 TOTAL) [2]: 0 (11×) and 1
- BSS scoring R (resting), Time Bin 2 (5-10 TOTAL) [2]: 0 (11×) and 1
- BSS scoring R (resting), Time Bin 3 (10-15 TOTAL) [2]: 0 (10×) and 1 (2×)
- BSS scoring R (resting), Time Bin 4 (15-20 TOTAL) [2]: 0 (8×) and 1 (4×)

Source: patent US20250108038A1 (priority 2023, published 2025)
